From patent US5138059A, “DC-89 compounds and process for their preparation” (priority 1988, dated 1992)
Values after ≈ are worked out from the molar mass of the structure shown.

Tests used:
[1] = Acute toxicity (LD50), intraperitoneal, mice; conditions: mouse, in vivo, ip
[2] = Solubility; format: physicochemical
[3] = system: lymphocytic leukemia P388; assay: Therapeutical effect against lymphocytic leukemia P388; format: in vivo, male CDF1 mice
Protocol: Five male CDF1 mice each weighing about 22 g were used for each group, and 1×10^6 cells of lymphocytic leukemia P388 tumor cells were implanted intraperitoneally into the mice. Twenty-four hours after the implantation, 0.2 ml of PBS containing the DC-89 compound was intraperitoneally administered once. For comparison, 0.2 ml of PBS containing mitomycin C was intraperitoneally administered 24 hours after implantation of the tumor cells. The increased life span (T/C) [T: mean survival time (days) of the test groups, C: mean survival time (days) of the control group which received an intraperitoneal administration of 0.2 ml of PBS] after the implantation is shown in Table 4.

[4] = system: Klebsiella pneumoniae ATCC 10031; assay: Antibacterial activity, agar dilution method (MIC); format: cell-based; conditions: ATCC10031; Klebsiella pneumoniae ATCC 10031, agar dilution, pH 7; read-out: Minimum inhibitory concentration (MIC)
Protocol: (§1) The antibacterial activity was determined by the agar dilution method using a medium (pH 7) prepared by dissolving 3 g of Bacto-tryptone (Difco Laboratories), 3 g of meat extract, 1 g of yeast extract, 1 g of glucose and 16 g of agar in 1 liter of water.

[5] = system: Staphylococcus aureus ATCC 6538P; assay: Antibacterial activity, agar dilution method (MIC); format: cell-based; conditions: ATCC6538P, pH 7, read-out: Minimum inhibitory concentration (MIC)
Protocol: as §1

[6] = system: Bacillus subtilis No. 10707; assay: Antibacterial activity, agar dilution method (MIC); format: cell-based; conditions: Bacillus subtilis No. 10707, agar dilution, pH 7; read-out: Minimum inhibitory concentration (MIC)
Protocol: as §1

[7] = system: Escherichia coli ATCC 26; assay: Antibacterial activity, agar dilution method (MIC); format: cell-based; conditions: ATCC26; Escherichia coli ATCC 26, agar dilution, pH 7; read-out: Minimum inhibitory concentration (MIC)
Protocol: as §1

[8] = system: Salmonella typhi ATCC 9992; assay: Antibacterial activity, agar dilution method (MIC); format: cell-based; conditions: Salmonella enterica; Salmonella typhi ATCC 9992, agar dilution, pH 7; read-out: Minimum inhibitory concentration (MIC)
Protocol: as §1

[9] = system: Sarcoma 180 solid tumor; assay: Therapeutical effect against Sarcoma 180 solid tumor; format: in vivo, ddY male mice; conditions: 10 days after implantation
Protocol: Six ddY male mice each weighing about 20 g were used for each group, and 5×10^6 Sarcoma 180 solid tumor cells were implanted subcutaneously into the mice at the axilla. Twenty-four hours after the implantation, 0.2 ml of a phosphate buffer saline (hereinafter referred to as PBS) containing the DC-89 compound in the concentration shown in Table 3 was intraperitoneally administered once.
The composition of PBS was 0.8 g/dl NaCl, 0.02 g/dl KCl, […] Na2 HPO4 and 0.02 g/dl KH2 PO4 (pH 7.2).
For comparison, 0.2 ml of PBS containing mitomycin C was intraperitoneally administered 24 hours after implantation of the tumor cells.
Ten days after the implantation, T/C [T: average tumor volume (mm^3) of the test groups, C: average tumor volume (mm^3) of the control group which received an intraperitoneal administration of 0.2 ml of PBS] was determined.

[10] = in methanol, ethanol, ethyl acetate, acetone, chloroform and dimethylsulfoxide
[11] = 4 mg/kg, i.p. 24 h after implantation

Compound	LD50 [1] [mg/kg]	Solubility [2, 10]	Solubility ([2]; in water and n-hexane)	Increased Life Span (T/C) (mean survival time) ([3]; 0.125 mg/kg, i.p. once 24 h after implantation)	MIC [4] [µg/mL]	MIC [5] [µg/mL]	MIC [6] [µg/mL]	MIC [7] [µg/mL]	MIC [8] [µg/mL]	T/C (average tumor volume) ([9]; 3 mg/kg, i.p. once 24 h after implantation)	Increased Life Span (T/C) (mean survival time) ([3]; 0.0156 mg/kg, i.p. once 24 h after implantation)	T/C (average tumor volume) ([9]; 0.5 mg/kg, i.p. once 24 h after implantation)	Increased Life Span (T/C) (mean survival time) ([3]; 0.0781 mg/kg, i.p. once 24 h after implantation)	T/C (average tumor volume) ([9]; 0.25 mg/kg, i.p. once 24 h after implantation)	Increased Life Span (T/C) (mean survival time) [3, 11]	T/C (average tumor volume) [9, 11]
COC(=O)C1(C)Nc2c(O)cc3c(c2C1=O)C(CCl)CN3C(=O)c1cc2cc(OC)c(OC)c(OC)c2[nH]1 (centres unmarked) [DC-89A2]	~3.83	readily soluble	sparingly soluble	1.35	0.42 (≈ 0.772 µM)	0.052 (≈ 0.0956 µM)	0.0065 (≈ 0.0119 µM)	5.2 (≈ 9.56 µM)	10.4 (≈ 19.1 µM)	0.19						
COC(=O)C1(C)Nc2c(O)cc3c(c2C1=O)CC(Br)CN3C(=O)c1cc2cc(OC)c(OC)c(OC)c2[nH]1 (centres unmarked) [DC-89B1]	~0.37	readily soluble	sparingly soluble		0.026 (≈ 0.0442 µM)	0.0008 (≈ 0.00136 µM)	0.013 (≈ 0.0221 µM)	0.33 (≈ 0.561 µM)	1.3 (≈ 2.21 µM)		1.35	0.22				
COC(=O)C1(C)Nc2c(O)cc3c(c2C1=O)C(CBr)CN3C(=O)c1cc2cc(OC)c(OC)c(OC)c2[nH]1 (centres unmarked) [DC-89B2]	~0.28	readily soluble	sparingly soluble		0.1 (≈ 0.17 µM)	0.0033 (≈ 0.00561 µM)	0.0033 (≈ 0.00561 µM)	1.3 (≈ 2.21 µM)	2.6 (≈ 4.42 µM)				1.19	0.28		
CO[C@@]12[C@H](COC(N)=O)C3=C(C(=O)C(C)=C(N)C3=O)N1C[C@@H]1N[C@@H]12 [Mitomycin C, mitomycin C, reference compound]															1.66	0.30
